Assay results: patent US4808588A, “Heterocyclic ureas and carbonates useful as pharmaceuticals” (Beecham Group, p.l.c., priority 1986, dated 1989)

Each compound was assayed on von Bezold-Jarisch reflex evoked by 5-HT (assay: Antagonism of the von Bezold-Jarisch reflex evoked by 5-HT in the anaesthetised rat). Details: anaesthetised male rats, compound intravenous, 5-HT usually 6 μg/kg i.v., heart rate changes, read-out: ED50 (concentration required to reduce the 5-HT-evoked response to 50% of the control response).
Format: in vivo
Protocol: Antagonism of the von Bezold-Jarisch reflex
The compounds were evaluated for antagonism of the von Bezold-Jarisch reflex evoked by 5-HT in the anaesthetised rat according to the following method:
Male rats 250-350 g, were anaesthetised with urethane (1.25 g/kg intraperitoneally) and blood pressure and heart rate recorded as described by Fozard J. R. et al., J. Cardiovasc. Pharmacol. 2, 229-245 (1980). A submaximal dose of 5-HT (usually 6 μg/kg) was given repeatedly by the intravenous route and changes in heart rate quantified. Compounds were given intravenously and the concentration required to reduce the 5-HT-evoked response to 50% of the control response (ED50) was then determined.

SMILES | ED50
COc1cscc1NC(=O)N[C@H]1C[C@H]2CC[C@@H](C1)N2C [Compound 5, (endo)-N-(8-Methyl-8-azabicyclo[3,2,1]oct-3-yl)-N'-(4-methoxythiophen-3-yl)urea] | 2 µg/kg
COc1ncccc1NC(=O)N[C@H]1C[C@H]2CC[C@@H](C1)N2C [Compound 1, (endo)-N-(8-Methyl-8-azabicyclo[3.2.1]oct-3-yl)-N'-(2-methoxy-pyrid-3-yl)urea] | 7.5 µg/kg
COc1ccsc1NC(=O)N[C@H]1C[C@H]2CC[C@@H](C1)N2C [Compound 3, (endo)-N-(8-Methyl-8-azabicyclo[3,2,1]oct-3-yl)-N'-(3-methoxythiophen-2-yl)urea] | 1 µg/kg
